The results in this text go back to patent US20210130339A1, “COMPOUNDS” (GLAXOSMITHKLINE INTELLECTUAL PROPERTY DEVELOPMENT LIMITED, priority 2017, published 2021).

For experiment [1], the target named is T1, recombinant full length LRRK2 (Homo sapiens, UniProt Q5S007).
T1 construct: A BacMam virus expressing full length recombinant LRRK2 was purchased from Invitrogen; host or cells: SH-SY5Y human neuroblastoma cells transduced with BacMam LRRK2 virus (MOI 50)
The experiment is described as follows: Recombinant cellular LRRK2 AlphaScreen assay. It is filed as cell-based. Particulars: LRRK2 Ser935 phosphorylation, SH-SY5Y cells over-expressing recombinant full length LRRK2; read-out: pIC50 in the recombinant cellular LRRK2 AlphaScreen assay (converted). The text has this: b. Recombinant Cellular LRRK2 AlphaScreen Assay
To determine the activity of compounds against LRRK2 kinase activity in cells, the observed LRRK2 kinase-dependent modulation of LRRK2 Ser 935 phosphorylation (Dzamko et al., 2010, Biochem. J. 430: 405-413) was utilized to develop a quantitative 384 well plate-based immunoassay of LRRK2 Ser935 phosphorylation in the human neuroblastoma cell line SH-SY5Y, engineered to over-express recombinant full length LRRK2 protein. A BacMam virus expressing full length recombinant LRRK2 was purchased from Invitrogen and amplified by inoculation of SF-9 cells at MOI 0.3 for 4-5 days in Sf-900 III SFM medium supplemented with 3% fetal bovine serum. Infected cell cultures were then centrifuged at 2000 g for 20 minutes, viral supernatant titer determined by anti-gp64 plaque assay and stored at 4° C. Affinity-purified anti-phospho LRRK2 Ser935 sheep polyclonal antibody (Dzamko et al., 2010, Biochem. J. 430: 405-413) was biotinylated by standard methods (PerkinElmer). Anti-LRRK2 rabbit polyclonal antibody was purchased from Novus Biologicals. AlphaScreen Protein A IgG Kit (including acceptor and donor beads) was purchased from Perkin Elmer. SH-SY5Y cells were grown in DMEM/F12 medium with 10% dialysed fetal bovine serum and harvested by treatment with 0.5% trypsin-EDTA for 5 minutes at 37° C. followed by centrifugation at 1000 rpm for 4 minutes. The cell pellet was resuspended in Opti-MEM reduced serum media (Invitrogen) at 200,000 cells/ml and mixed with the BacMam LRRK2 virus at MOI=50. 50 μl cell solutions were then dispensed to each well of a 384-well plate and incubated at 37° C., 5% CO2 for 24 hours. Serial dilutions of test compounds were prepared in Opti-MEM reduced serum media (Invitrogen) and 5.6 ul transferred from compound plate to cell assay plate to achieve a top final assay concentration of 10 uM. DMSO was used in certain wells as controls. Cells were incubated at 37° C., 5% CO2 for 60 minutes. The medium was then removed and cells lysed by addition of 20 ul cell lysis buffer (Cell Signaling Technology) and incubation at 4° C. for 20 minutes. 10 ul of antibody/acceptor bead mix [(1/1000 biotinylated-pS935 LRRK2 antibody, 1/1000 total-LRRK2 antibody, 1/100 Acceptor beads in AlphaScreen detection buffer (25 mM Hepes (pH 7.4), 0.5% Triton X-100, 1 mg/ml Dextran 500 and 0.1% BSA)] was then added to each well and plates incubated for 2 hours at ambient temperature in the dark. 10 μl of donor beads solution (1/33.3 donor beads in AlphaScreen detection buffer) was then added to each well. Following incubation for a further 2 hours at ambient temperature in the dark, plates were read on an EnVision™ plate reader at emission 520-620 nm with excitation 680 nm. Dose response curve data was based on sigmoidal dose-response model.

Experiment [2] deals with T2, Full length G2019 human LRRK2 (Homo sapiens, UniProt Q5S007).
T2 construct: purified recombinant Full length Flag-LRRK2 in assay buffer; made in house; host or cells: HEK293 6E cells transduced with BacMam virus (virus generated in Sf9 cells)
The experiment is described as follows: Full length G2019 human LRRK2 Inhibition Mass Spectrometry assay. It is filed as biochemical. Particulars: LRRKtide substrate, RapidFire mass spectrometry; read-out: pIC50 in the Full length G2019 human LRRK2 Inhibition Mass Spectrometry assay (converted). Here is the method: a. Full Length G2019 Human LRRK2 Inhibition Mass Spectrometry Assay
This assay for Leucine Rich Repeat Kinase 2 (LRRK2) inhibition is based on the direct measurement of the peptide ‘LRRKtide’ (LRRKtide: RLGRDKYKT*LRQIRQ and “*” refers to the site of phosphorylation.) and phosphorylated ‘LRRKtide’ using a high throughput RapidFire mass spectrometry assay. Inhibitors are compounds that reduce the conversion of LRRKtide to phospho-LRRKtide.
HEK293 6E cells were incubated in a 37° C. incubator with a humidified atmosphere of 5% CO2 on an orbital shaker rotating at 110 rpm. On the day of transduction, the cell viability was higher than 98% and the cell density was in the range of 1×10^6˜1.5×10^6 cells/ml. HEK293 6E cells were centrifuged at 1,000 rpm for 10 min, and then the cells were resuspended in fresh Freestyle 293 expression medium (Invitrogen:12338) with 0.1% F-68 (Invitrogen:24040-032) but without antibiotics (G418) at density of 1×10^6 cells/ml. BacMam virus with Flag-hu LRRK2 (genotypically normal) gene was centrifuged at 40,000 g for 2 hours, then resuspended in fresh Freestyle 293 expression medium. The resuspended virus was added into the cells in at MOI of 10. The cells were incubated in a 37° C. incubator with a humidified atmosphere of 5% CO2 in air on an orbital shaker rotating at 110 rpm. Cultures were harvested at approximately 48 hours post-transduction by centrifugation at 4,000 rpm for 20 min and pellets were frozen for purification.
The suspended cells were lysed by sonication on ice for 30 min (2 secs on/4 sec off, 20% amplitude), and centrifuged at 10,000 rpm for 30 minutes at 4° C. The supernatant was incubated with 1 mL per litre of cell culture of anti-Flag magnetic beads (Sigma-Aldrich: M8823) at 4° C. for 3 hours, then the beads were washed by 5 mL (5 column volume) binding buffer (50 mM Tris pH7.5@ 4C, 500 mM NaCl, 0.5 mM EDTA, 0.1% TritonX-100, 10% glycerol, freshly add 2 mM DTT) for three times. The Flag tagged LRRK2 proteins were eluted by Elution buffer (50 mM Tris pH7.5@ 4C, 500 mM NaCl, 0.5 mM EDTA, 0.1% TritonX-100, 10% glycerol, freshly add 2 mM DTT, 250 ug/ml Flag peptide (Sigma-Aldrich:F3290)) at 4° C. for 2 hours. Flag peptide was removed by Zeba Spin Desalting Columns, 7K MWCO (Thermo-Fisher: 89893) and the buffer of eluted LRRK2 proteins was exchanged into Storage Buffer (50 mM Tris pH7.5@4C, 150 mM NaCl, 0.5 mM EDTA, 0.02% Triton X-100, 2 mM DTT and 50% Glycerol) using Amicon Ultra Centrifugal Filter Units (100 kD) (Merck: UFC910096). Fractions containing LRRK2 proteins were pooled, aliquoted and stored at −80° C. Protein concentration was determined by Bradford protein assay, and protein purity was analyzed by NuPAG Novex 4-12% Bis-Tris Protein Gels (Invitrogen: NP0322BOX).
• 1) A 10 mM test compound was dissolved in 100% DMSO and serially diluted 1 in 4. 100 nL of this dilution series was then added to a 384 well, v bottom polypropylene plate, excluding columns 6 and 18. 100 nL of DMSO was added to columns 6 and 18 as controls wells. Assay dilution gave a top final assay concentration of test compound of 100 μM • 2) 50 μl of 1% formic acid in laboratory grade water was added to column 18 using a multidrop combi dispenser to act as a pre stopped assay control. • 3) 5 μl of ‘enzyme solution’ containing 50 nM of purified recombinant Full length Flag-LRRK2 in assay buffer (50 mM Hepes (pH 7.2), 10 mM MgCl2, 150 mM NaCl, 5% glycerol, 0.0025% triton X-100 and 1 mM DTT) was added to all wells using a multidrop combi dispenser, giving a final assay concentration of 25 nM LRRK2 enzyme. […] Test plates were then incubated for 30 minutes at room temperature. • 4) 5 μl ‘substrate solution’ containing 50 uM LRRKtide peptide substrate and 4 mM ATP was added to all wells of the plate using a multidrop combi dispenser giving a final assay concentration of 25 uM LRRKtide and 2 mM ATP. Test plates were then incubated for 1 hour at room temperature. […]

SMILES strings stand for the structures.

T2 sequence (Q5S007 with tags, fused parts or gaps R50H): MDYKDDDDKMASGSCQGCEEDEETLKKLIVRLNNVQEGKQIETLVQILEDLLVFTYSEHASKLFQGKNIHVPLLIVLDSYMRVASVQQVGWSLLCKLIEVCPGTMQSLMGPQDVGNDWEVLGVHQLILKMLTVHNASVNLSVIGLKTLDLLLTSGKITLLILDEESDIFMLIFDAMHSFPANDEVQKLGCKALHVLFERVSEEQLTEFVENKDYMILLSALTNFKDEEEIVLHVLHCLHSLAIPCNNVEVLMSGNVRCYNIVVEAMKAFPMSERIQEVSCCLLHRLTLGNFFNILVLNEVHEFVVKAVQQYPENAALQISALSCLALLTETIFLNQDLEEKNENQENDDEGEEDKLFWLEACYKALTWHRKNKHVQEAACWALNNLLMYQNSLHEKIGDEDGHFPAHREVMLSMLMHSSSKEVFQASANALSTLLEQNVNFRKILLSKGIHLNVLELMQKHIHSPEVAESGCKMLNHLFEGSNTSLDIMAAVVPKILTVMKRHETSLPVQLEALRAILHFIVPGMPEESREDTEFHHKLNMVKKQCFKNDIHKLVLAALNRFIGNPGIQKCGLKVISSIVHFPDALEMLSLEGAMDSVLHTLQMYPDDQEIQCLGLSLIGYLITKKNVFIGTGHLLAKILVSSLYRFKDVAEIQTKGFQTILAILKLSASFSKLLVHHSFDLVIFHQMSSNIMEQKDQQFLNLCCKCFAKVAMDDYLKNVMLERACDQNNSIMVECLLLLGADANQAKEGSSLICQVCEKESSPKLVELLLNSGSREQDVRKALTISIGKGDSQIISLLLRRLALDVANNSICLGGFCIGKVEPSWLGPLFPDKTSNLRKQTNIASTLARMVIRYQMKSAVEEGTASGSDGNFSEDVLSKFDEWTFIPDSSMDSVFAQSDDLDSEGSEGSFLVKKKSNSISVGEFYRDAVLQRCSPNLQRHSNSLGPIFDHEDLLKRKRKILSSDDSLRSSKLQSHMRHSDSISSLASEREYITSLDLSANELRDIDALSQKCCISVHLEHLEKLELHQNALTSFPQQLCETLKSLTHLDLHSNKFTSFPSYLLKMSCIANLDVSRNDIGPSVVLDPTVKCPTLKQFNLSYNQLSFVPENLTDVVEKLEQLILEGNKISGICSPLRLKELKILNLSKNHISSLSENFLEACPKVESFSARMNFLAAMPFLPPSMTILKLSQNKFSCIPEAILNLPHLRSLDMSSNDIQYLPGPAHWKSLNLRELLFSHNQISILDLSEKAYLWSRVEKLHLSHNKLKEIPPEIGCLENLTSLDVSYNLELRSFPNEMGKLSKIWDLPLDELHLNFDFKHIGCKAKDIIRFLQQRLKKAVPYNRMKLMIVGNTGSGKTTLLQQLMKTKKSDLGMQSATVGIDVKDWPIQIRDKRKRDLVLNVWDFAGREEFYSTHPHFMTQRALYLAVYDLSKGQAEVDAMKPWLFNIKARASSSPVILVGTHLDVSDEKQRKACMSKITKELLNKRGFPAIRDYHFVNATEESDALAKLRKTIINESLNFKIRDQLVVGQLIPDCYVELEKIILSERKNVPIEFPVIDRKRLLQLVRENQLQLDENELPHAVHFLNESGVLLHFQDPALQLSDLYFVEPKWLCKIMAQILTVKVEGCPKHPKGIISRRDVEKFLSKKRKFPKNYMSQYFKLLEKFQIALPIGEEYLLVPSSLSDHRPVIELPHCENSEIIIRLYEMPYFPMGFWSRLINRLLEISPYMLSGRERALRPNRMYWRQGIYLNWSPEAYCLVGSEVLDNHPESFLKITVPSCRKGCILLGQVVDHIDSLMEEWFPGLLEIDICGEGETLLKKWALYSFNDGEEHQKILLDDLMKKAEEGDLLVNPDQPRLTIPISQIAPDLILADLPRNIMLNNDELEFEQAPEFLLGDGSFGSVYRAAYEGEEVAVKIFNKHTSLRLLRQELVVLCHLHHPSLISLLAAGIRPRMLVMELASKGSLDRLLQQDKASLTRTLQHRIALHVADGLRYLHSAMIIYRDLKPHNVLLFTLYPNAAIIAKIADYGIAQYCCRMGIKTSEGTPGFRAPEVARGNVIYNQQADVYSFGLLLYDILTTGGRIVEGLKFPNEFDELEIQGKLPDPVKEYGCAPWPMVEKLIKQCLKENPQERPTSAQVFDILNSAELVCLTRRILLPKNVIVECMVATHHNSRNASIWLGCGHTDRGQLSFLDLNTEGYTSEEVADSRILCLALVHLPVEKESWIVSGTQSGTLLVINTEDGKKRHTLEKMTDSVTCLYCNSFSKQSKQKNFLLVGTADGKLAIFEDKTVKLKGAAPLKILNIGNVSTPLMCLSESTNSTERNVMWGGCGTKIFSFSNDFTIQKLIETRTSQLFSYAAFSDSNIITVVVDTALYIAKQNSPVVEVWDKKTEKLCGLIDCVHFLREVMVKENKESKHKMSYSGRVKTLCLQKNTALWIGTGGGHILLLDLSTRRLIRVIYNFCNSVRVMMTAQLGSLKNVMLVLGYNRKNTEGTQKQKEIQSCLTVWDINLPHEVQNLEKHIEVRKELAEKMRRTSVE
T1 sequence (Q5S007 whole entry): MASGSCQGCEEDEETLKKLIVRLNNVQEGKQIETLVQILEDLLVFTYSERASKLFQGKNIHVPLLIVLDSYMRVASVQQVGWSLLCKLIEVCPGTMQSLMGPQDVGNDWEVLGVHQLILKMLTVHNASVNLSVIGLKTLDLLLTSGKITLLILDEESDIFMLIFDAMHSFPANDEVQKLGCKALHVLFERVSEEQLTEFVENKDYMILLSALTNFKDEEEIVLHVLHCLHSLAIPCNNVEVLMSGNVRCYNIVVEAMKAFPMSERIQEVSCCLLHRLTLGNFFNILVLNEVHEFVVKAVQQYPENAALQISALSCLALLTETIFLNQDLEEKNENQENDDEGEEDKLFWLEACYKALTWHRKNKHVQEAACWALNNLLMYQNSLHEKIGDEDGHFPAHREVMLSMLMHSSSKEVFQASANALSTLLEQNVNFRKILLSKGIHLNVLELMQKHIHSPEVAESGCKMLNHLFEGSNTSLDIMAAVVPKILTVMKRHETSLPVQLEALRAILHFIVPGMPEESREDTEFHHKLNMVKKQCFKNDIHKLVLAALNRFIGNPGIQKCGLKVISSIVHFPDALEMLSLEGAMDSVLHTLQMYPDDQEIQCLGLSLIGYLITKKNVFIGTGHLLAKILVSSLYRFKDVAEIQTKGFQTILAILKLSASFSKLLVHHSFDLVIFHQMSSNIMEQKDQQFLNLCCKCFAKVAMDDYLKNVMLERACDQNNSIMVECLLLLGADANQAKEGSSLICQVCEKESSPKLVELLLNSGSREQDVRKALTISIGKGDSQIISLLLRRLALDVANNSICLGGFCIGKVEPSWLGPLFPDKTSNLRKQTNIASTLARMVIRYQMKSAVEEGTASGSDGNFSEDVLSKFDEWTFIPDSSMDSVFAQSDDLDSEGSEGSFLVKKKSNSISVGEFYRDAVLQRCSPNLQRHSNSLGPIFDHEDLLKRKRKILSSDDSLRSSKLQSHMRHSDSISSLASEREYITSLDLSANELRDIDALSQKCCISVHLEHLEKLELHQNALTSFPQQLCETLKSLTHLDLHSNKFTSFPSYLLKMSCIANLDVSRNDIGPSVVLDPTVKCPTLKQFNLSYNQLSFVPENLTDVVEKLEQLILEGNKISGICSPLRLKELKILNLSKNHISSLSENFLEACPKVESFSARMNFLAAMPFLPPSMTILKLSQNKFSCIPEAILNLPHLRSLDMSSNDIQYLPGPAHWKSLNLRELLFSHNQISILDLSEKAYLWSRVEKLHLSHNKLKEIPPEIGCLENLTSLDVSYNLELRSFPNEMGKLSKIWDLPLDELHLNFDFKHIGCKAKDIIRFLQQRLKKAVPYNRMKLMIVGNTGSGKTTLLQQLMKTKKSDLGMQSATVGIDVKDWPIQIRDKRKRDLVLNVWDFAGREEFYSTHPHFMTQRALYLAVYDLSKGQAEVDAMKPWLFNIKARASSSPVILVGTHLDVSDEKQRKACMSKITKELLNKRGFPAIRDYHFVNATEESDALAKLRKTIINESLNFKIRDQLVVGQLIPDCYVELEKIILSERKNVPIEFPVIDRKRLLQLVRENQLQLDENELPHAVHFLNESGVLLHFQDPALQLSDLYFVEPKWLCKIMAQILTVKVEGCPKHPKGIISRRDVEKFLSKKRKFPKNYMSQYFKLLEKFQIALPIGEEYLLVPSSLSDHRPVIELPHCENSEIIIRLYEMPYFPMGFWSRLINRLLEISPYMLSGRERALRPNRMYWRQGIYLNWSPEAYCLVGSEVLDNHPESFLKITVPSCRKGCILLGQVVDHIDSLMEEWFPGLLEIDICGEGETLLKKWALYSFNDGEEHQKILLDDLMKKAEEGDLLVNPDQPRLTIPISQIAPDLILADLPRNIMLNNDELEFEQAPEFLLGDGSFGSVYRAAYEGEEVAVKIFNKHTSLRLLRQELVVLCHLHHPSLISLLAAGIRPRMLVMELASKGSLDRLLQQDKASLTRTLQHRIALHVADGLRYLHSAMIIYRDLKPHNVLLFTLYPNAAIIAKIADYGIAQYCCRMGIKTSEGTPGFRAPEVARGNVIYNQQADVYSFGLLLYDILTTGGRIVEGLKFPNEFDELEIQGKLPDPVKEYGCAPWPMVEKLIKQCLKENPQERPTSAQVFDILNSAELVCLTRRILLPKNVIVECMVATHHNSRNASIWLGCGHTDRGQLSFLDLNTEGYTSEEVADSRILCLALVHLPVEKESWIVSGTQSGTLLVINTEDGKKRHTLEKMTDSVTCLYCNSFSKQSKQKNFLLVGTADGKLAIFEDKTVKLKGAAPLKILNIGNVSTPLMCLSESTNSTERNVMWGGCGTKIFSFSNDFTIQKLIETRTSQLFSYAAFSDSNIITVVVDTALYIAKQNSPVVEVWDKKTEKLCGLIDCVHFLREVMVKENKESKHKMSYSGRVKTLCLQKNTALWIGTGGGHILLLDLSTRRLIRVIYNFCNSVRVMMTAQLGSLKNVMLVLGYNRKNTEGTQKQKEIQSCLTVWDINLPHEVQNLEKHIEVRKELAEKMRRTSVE

For `Cc1nc(N2CCO[C@H](CO)C2)cc(-n2ncc3cc(C)c(C4CCN(C5COCC5O)CC4)cc32)n1` (single isomer, unassigned) [Example E153], the IC50 in experiment [1] and in experiment [2] was at most 100 nM each time.

As for `Cc1nc(N2CCO[C@@H](CO)C2)cc(-n2ncc3cc(Cl)c(C4CCN(C5CCOC5)CC4)cc32)n1` (single isomer, unassigned) [Example E130], the IC50 in experiment [1] and in experiment [2] was at most 100 nM throughout. Take `COc1nc(N2CC(O)C2)cc(-n2ncc3cc(Cl)c(C4CCN(C5CCOC5)CC4)cc32)n1` (single isomer, unassigned) [Example E30, 1-(6-(5-Chloro-6-(1-(tetrahydrofuran-3-yl)piperidin-4-yl)-1H-indazol-1-yl)-2-methoxy-pyrimidin-4-yl)azetidin-3-ol]: the results for the IC50 in experiment [1] and in experiment [2] were at most 100 nM and at most 1000 nM, respectively. `Cc1nc(N2CCO[C@H](CO)C2)cc(-n2ncc3cc(C)c(C4CCN(C5COCC5F)CC4)cc32)n1` (single isomer, unassigned) [Example E149]: the values for the IC50 in experiment [1] and in experiment [2] were at most 1000 nM and at most 100 nM, respectively. As to `COc1nc(N2CCOCC2)cc(-n2ncc3cc(C)c(C4CCN(C5CCOC5)CC4F)cc32)n1` (single isomer, unassigned) [Example E115, Cis-4-(6-(6-(3-fluoro-1-(tetrahydrofuran-3-yl)-piperidin-4-yl)-5-methyl-1H-indazol-1-yl)-2-methoxypyrimidin-4-yl)morpholine], the IC50 in experiment [1] and in experiment [2] was at most 10 nM in each case. Regarding `Cc1nc(OC2CC(O)C2)cc(-n2ncc3cc(C)c(C4CCN(C5CCOC5)CC4)cc32)n1` (single isomer, unassigned) [Example E146, 3-((2-methyl-6-(5-methyl-6-(1-(tetrahydrofuran-3-yl)piperidin-4-yl)-1H-indazol-1-yl)pyrimidin-4-yl)oxy)cyclobutanol], the IC50 in experiment [2] is at most 1000 nM. As to `Cc1nc(N2CCOC(C(C)O)C2)cc(-n2ncc3cc(C)c(C4CCN(C5CCOC5)CC4)cc32)n1` (single isomer, unassigned) [Example E136, 1-(4-(2-methyl-6-(5-methyl-6-(1-(tetrahydrofuran-3-yl)piperidin-4-yl)-1H-indazol-1-yl)pyrimidin-4-yl)morpholin-2-yl)ethanol], the IC50 in experiment [1] was at most 1000 nM; in experiment [2], at most 100 nM. As to `Cc1nc(N2CC(C)(O)C2)cc(-n2ncc3cc(Cl)c(C4CCN(C5CCOC5)CC4)cc32)n1` (single isomer, unassigned) [Example E127, 1-(6-(5-chloro-6-(1-(tetrahydrofuran-3-yl)piperidin-4-yl)-1H-indazol-1-yl)-2-methyl-pyrimidin-4-yl)-3-methylazetidin-3-ol], the IC50 in experiment [2] is at most 100 nM. Same read-out and setting: under `[2H]C1(N2CCC(c3cc4c(cnn4-c4cc(N5CCO[C@H](CO)C5)nc(C)n4)cc3C)CC2)CCOC1` (single isomer, unassigned) [Example E33] stands at most 1000 nM. Same read-out and setting: under `Cc1nc(N2CCOC[C@H]2CO)cc(-n2ncc3cc(C)c(C4CCN(C5CCOC5)CC4)cc32)n1` (single isomer, unassigned) [Example E111] stands at most 1000 nM. Take `Cc1nc(N[C@H]2C[C@H](O)C2)cc(-n2ncc3cc(C)c(C4CCN(C5CCOC5)CC4)cc32)n1` (single isomer, unassigned) [Example E132, trans-3-((2-methyl-6-(5-methyl-6-(1-(tetrahydrofuran-3-yl)piperidin-4-yl)-1H-indaz-ol-1-yl)pyrimidin-4-yl)amino)cyclobutanol]: the IC50 in experiment [1] is at most 1000 nM. On the same count and under the same terms, under `COc1nc(N2CCO[C@H](CO)C2)cc(-n2ncc3cc(C)c(C4CCN(C5CCOC5)CC4F)cc32)n1` (single isomer, unassigned) [Example E122] stands at most 10 nM; under `[2H]C1(N2CCC(c3cc4c(cnn4-c4cc(N5CCO[C@@H](CO)C5)nc(C)n4)cc3C)CC2)CCOC1` (single isomer, unassigned) [Example E35], 200 nM. In the case of `Cc1nc(N[C@H]2CCOC2)cc(-n2ncc3cc(C)c(C4CCN(C5CCOC5)CC4)cc32)n1` (stereo partly drawn) [Example E144, 2-methyl-6-(5-methyl-6-(1-(tetrahydrofuran-3-yl)piperidin-4-yl)-1H-indazol-1-yl)-N—((S)-tetrahydrofuran-3-yl)pyrimidin-4-amine], the IC50 in experiment [1] is at most 1000 nM. The same measure, in the same setting: under `COc1nc(N2CC(C(C)O)C2)cc(-n2ncc3cc(C)c(C4CCN(C5CCOC5)CC4)cc32)n1` (single isomer, unassigned) [Example E99, 1-(1-(2-methoxy-6-(5-methyl-6-(1-(tetrahydrofuran-3-yl)piperidin-4-yl)-1H-indazol-1-yl)pyrimidin-4-yl)azetidin-3-yl)ethanol] stands at most 1000 nM.
